Measurements published in ChEMBL document CHEMBL1139181, “Design and synthesis of novel heterobiaryl amides as metabotropic glutamate receptor subtype 5 antagonists” (Bioorg Med Chem Lett, 2007).

What was measured:
[1] = molecular target: Metabotropic glutamate receptor 5 (Rattus norvegicus) (UniProt P31424); test: Displacement of [3H]MPEP from mGluR5 in rat brain membrane at 10 uM; format: cell membranes
[2] = molecular target: Metabotropic glutamate receptor 5 (Rattus norvegicus, UniProt P31424); test: Displacement of [3H]MPEP from mGluR5 in rat brain membrane; format: cell membranes
[3] = molecular target: Metabotropic glutamate receptor 5 (Homo sapiens, UniProt P41594); test: Antagonist activity at mGluR5 expressed in CHO cells assessed as phosphoinositide hydrolysis; format: functional, cell-based
Sequence of Metabotropic glutamate receptor 5 (Homo sapiens, UniProt P41594) (P41594 whole entry): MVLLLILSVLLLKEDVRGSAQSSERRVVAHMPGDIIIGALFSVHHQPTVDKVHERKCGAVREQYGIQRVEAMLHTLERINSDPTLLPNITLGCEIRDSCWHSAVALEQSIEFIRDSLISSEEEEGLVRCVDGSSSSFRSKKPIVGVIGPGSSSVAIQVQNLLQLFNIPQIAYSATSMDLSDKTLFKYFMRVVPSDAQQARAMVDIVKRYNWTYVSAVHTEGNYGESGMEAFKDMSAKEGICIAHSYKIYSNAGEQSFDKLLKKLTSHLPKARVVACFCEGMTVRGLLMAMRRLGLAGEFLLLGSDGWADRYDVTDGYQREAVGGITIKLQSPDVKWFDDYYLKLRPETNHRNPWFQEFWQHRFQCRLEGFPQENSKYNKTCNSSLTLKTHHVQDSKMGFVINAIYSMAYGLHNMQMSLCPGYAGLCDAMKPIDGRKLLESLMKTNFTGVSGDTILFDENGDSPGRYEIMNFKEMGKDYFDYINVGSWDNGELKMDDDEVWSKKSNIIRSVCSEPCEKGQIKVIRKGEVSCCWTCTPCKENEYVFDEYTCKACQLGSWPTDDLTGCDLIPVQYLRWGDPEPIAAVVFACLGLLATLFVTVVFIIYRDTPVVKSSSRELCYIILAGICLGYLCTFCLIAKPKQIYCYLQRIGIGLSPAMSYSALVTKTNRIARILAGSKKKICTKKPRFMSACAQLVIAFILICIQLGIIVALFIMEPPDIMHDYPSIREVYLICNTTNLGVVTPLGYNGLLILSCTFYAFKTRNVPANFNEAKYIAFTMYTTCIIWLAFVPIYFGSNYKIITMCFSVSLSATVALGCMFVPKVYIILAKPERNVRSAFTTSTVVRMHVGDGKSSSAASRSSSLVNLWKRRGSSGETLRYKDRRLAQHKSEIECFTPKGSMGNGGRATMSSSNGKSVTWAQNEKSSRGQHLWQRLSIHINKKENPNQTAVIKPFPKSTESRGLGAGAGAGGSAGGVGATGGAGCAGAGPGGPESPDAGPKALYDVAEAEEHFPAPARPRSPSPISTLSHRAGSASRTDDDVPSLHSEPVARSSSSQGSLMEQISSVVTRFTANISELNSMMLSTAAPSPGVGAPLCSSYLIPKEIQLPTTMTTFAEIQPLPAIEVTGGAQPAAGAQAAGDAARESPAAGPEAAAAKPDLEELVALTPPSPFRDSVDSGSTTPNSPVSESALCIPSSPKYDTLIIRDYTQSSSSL

Sequence of Metabotropic glutamate receptor 5 (Rattus norvegicus, UniProt P31424) (P31424 whole entry): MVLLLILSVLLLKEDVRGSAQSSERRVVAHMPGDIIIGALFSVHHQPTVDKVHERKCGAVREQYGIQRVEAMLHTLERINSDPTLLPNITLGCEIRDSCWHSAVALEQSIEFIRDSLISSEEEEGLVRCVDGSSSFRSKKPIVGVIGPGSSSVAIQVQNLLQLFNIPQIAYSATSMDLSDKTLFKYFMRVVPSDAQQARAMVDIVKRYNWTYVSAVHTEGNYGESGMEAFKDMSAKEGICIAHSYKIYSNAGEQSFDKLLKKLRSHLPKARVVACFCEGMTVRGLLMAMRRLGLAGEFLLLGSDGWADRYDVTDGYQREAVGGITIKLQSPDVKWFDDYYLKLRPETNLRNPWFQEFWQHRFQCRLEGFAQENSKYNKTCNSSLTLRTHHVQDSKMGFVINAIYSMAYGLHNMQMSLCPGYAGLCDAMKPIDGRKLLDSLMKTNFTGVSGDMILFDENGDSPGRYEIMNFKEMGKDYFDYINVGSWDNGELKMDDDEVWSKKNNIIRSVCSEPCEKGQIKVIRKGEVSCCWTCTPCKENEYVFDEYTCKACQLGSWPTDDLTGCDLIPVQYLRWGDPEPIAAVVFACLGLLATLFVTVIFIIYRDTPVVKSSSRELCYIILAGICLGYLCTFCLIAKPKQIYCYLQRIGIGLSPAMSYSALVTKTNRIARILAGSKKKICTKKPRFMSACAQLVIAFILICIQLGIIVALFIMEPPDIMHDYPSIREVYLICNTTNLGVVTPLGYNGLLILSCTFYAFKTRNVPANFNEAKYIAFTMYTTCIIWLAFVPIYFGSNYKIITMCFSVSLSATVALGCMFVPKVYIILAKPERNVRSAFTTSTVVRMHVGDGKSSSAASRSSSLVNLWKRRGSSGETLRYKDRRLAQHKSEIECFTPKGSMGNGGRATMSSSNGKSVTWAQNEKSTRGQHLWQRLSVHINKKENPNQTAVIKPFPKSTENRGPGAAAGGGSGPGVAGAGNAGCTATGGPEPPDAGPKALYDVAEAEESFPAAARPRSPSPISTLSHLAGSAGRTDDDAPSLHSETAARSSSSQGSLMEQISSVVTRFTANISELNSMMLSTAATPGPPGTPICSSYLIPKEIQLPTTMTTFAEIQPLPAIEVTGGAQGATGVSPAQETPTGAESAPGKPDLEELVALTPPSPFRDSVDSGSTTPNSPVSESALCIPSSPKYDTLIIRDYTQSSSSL
Sequence of Metabotropic glutamate receptor 5 (Rattus norvegicus) (P31424 21-1203 limits assumed): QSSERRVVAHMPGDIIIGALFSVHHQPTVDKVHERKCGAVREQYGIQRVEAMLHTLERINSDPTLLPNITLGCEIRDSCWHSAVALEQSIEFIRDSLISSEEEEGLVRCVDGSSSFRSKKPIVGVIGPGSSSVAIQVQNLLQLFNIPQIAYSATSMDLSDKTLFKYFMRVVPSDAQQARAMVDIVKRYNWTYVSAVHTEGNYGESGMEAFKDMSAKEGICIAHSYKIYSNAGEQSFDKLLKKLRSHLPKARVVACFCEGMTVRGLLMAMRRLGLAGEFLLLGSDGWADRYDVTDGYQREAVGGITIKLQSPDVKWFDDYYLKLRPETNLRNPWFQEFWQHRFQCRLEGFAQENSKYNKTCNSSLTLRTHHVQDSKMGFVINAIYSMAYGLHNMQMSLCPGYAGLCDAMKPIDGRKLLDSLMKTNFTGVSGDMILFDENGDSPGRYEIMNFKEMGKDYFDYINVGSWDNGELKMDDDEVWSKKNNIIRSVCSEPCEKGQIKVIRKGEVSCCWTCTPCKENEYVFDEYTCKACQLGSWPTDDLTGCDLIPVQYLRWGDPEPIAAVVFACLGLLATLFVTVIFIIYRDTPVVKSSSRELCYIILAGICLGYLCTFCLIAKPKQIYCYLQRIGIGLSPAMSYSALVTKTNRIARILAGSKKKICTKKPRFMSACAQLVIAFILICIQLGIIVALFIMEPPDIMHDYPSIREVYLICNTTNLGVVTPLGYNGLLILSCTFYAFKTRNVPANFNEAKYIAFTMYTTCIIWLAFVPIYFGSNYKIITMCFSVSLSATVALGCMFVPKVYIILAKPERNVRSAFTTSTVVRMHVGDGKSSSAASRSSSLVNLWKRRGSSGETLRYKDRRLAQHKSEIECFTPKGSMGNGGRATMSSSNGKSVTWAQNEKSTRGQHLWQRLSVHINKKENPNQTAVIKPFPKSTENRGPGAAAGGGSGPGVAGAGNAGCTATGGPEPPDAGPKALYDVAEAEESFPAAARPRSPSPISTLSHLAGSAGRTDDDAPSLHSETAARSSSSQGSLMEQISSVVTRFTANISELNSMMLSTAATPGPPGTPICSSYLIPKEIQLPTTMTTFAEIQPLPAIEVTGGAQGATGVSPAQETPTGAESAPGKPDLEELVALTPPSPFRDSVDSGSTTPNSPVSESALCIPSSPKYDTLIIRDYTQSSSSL

Row | SMILES | Activity [1] | Ki [2] | IC50 [3]
1 | COc1cccc(-c2ccnc(C(=O)Nc3cccc(C)n3)c2)c1 | 13% | – | –
2 | Cc1cccc(NC(=O)c2cc(Cl)ccn2)n1 | 28% | – | –
3 | Cc1cccc(NC(=O)c2ccc(-c3ccccn3)cn2)n1 | – | 100 nM | 12400 nM
4 | Cc1cccc(NC(=O)c2ccc(-c3cccs3)cn2)n1 | 40% | – | –
5 | Cc1cccc(NC(=O)c2cc(-c3cc(F)cc(F)c3)ccn2)n1 | – | 43 nM | 160 nM
6 | Cc1cccc(NC(=O)c2ccc(-c3ccccc3)cn2)n1 | – | 2800 nM | –
7 | Cc1cccc(NC(=O)c2nccn2C)n1 | – | 3070 nM | –
8 | Cc1cccc(NC(=O)c2nccc3ccccc23)n1 | – | 440 nM | –
9 | Cc1cccc(NC(=O)c2cc(-c3ncccn3)ccn2)n1 | – | 2480 nM | –
10 | Cc1cccc(NC(=O)c2cc3ccccc3s2)n1 | 11% | – | –
11 | Cc1cccc(NC(=O)c2cc3ccccc3o2)n1 | 40% | – | –
12 | Cc1cccc(NC(=O)c2ccc(-c3cccc(C#N)c3)cn2)n1 | 7.4% | – | –
13 | Cc1cccc(NC(=O)c2cc(-c3ccc4ccccc4c3)ccn2)n1 | 32% | – | –
14 | Cc1cccc(NC(=O)c2cc(-c3cccs3)ccn2)n1 | < 1% | – | –
15 | Cc1cccc(NC(=O)c2cc3ccccc3[nH]2)n1 | < 1% | – | –
16 | Cc1cccc(NC(=O)c2cc(-c3cccc(C#N)c3)ccn2)n1 | – | 320 nM | 7300 nM
17 | Cc1cccc(NC(=O)c2cc3ccccc3n2C)n1 | 8% | – | –
18 | COc1ccccc1-c1ccc(C(=O)Nc2cccc(C)n2)nc1 | – | 560 nM | –
19 | Cc1cccc(NC(=O)c2cccn2C)n1 | – | > 10000 nM | –
20 | Cc1cccc(NC(=O)c2cc(-c3cccc4ccccc34)ccn2)n1 | – | 250 nM | –
21 | COc1ccccc1-c1ccnc(C(=O)Nc2cccc(C)n2)c1 | 91% | – | –
22 | Cc1cccc(NC(=O)c2cc(-c3cccc(F)c3)ccn2)n1 | – | 500 nM | –
23 | Cc1cccc(NC(=O)c2csc(-c3ccccc3)n2)n1 | < 1% | – | –
